Experimental data taken from patent publication US6299906A, “Process for making submicron particles” (Hoffmann-La Roche Inc., priority 1998, dated 2001).
In brackets after ≈: the same amount, converted by molar mass. Where two headings read alike, the source gives them in different places.

Legend:
[1] = Particle size distribution of Saquinavir by laser diffraction, influence of the pressure in the first container (Example 3); type: physicochemical; details: DME, Aerosol OT, 40° C.
Source text: (§1) The particle size distribution of very small particles of approximately 1 μm is difficult to determine accurately. Two commonly used methods are photon correlation spectroscopy (PCS) and laser diffraction. Photon correlation spectroscopy is commonly used for characterization of submicron suspensions and emulsions. Due to the principle of the measurement, movement of particles, particles larger than 3 to 5 μm cannot be seen with this method. With laser diffraction small particles, >0.1 μm, as well as larger particles, up to 2 mm, can be characterized in parallel. The diffraction of the light is thereby measured at small diffraction angles. For very small particles the method tends to overestimate the particle size due to transmission of light through the particles.
(§2) Formation of fractions of coarse particles was observed especially after clogging of the nozzle, e.g. expansion of a compound dissolved in a compressed gas without modifier. To be able to detect the presence of coarse particles, laser diffraction was chosen to characterize the whole suspension. With its wide dynamic range, laser diffraction allows the detection of particles up to 2 mm that cannot be seen by the PCS method. Since laser diffraction tends to overestimate the particle size (FIGS. 2, 3), all the particle sizes determined by laser diffraction can be considered as too large.
The autoclave was kept at a temperature of 40° C. with a water bath. Then the autoclave was filled with DME up to different pressures and equilibrated for 90 min.
The autoclave was connected to a second autoclave via a heated high pressure line, kept at 25° C., 5 bar. […] The pressure of the first autoclave was kept constant by pumping in additional gas.
The nozzle diameter was 0.1 mm. As commonly known a further decrease of particle size can be obtained by decrease of the nozzle diameter.

[2] = Solubility of drug substances in liquid carbon dioxide and dimethyl ether (HPLC or gravimetric); type: physicochemical
Protocol: A comparison of solubilities of a number of pharmaceutical drug substances was performed as follows:
Approximately 3-5 g of the drug product was slightly compressed in a uniaxial press to avoid the formation of a stable suspension. The so compressed powder was placed in a pressure chamber with a sapphire glass (30 ml volume). The temperature of the pressure chamber was controlled by water bath. Then the pressure in the chamber was increased using the corresponding gas and equilibrated for 1-3 hours. After equilibration a 1.0 ml sample was drawn under constant pressure and temperature conditions using a high pressure line with a defined volume. […] The sample container was afterwards rinsed with the same liquid to collect the residues of the substance in the sample container.

[3] = Particle size distribution of Saquinavir by Photon Correlation Spectroscopy (FIG. 2); type: physicochemical; details: batch no. 1051/30, Angle 90
Source text: as §1

[4] = Source text: as §1
To be able to detect the presence of coarse particles, laser diffraction was chosen to characterize the whole suspension. With its wide dynamic range, laser diffraction allows the detection of particles up to 2 mm that cannot be seen by the PCS method.
The autoclave was kept at a temperature of 40° C. with a water bath. Then the autoclave was filled with DME up to 200 bar and equilibrated for 90 min.
The autoclave was connected to a second autoclave via a heated high pressure line, kept at 25° C., at 5 bar. […] The pressure of the first autoclave was kept constant by pumping in additional gas.

[5] = Particle size distribution of THL by laser diffraction, influence of the spraying time (Example 2); type: physicochemical; details: for Dv 0.1 / Dv 0.5 / Dv 0.9: CO2 200 bar, 40° C., Brij 96
Source text: as §1, §2
150 g of solid THL and 75 g Brij 96 in a container with two sinter plates was charged into an autoclave having a volume of 6 liter. The autoclave was kept at a temperature of 40° C. with a water bath. Then the autoclave was filled with CO2 up to a pressure of 200 bar and equilibrated for 90 min.
The autoclave was connected to a second autoclave via a heated high pressure line, kept at 40° C. […] The dissolved THL was sprayed into 1.25 liter of an aqueous solution of Brij 96 (0.06%=1 CMC) in this second autoclave. The pressure of the first autoclave was kept constant at 200 bar by pumping in additional gas.
After 90, 150, and 180 minutes of spraying, a sample for particle size distribution was drawn. After 180 min the whole amount of THL/Brij was removed from the first container (≈12% THL in the final suspension).

[6] = pressure l00 bar (so in the source)
[7] = liquid co2, organic solvent or mixture, CO2, 45° C./200 bar, read-out: solubility (CO2)
[8] = surfactant Brij 96, DME 200 bar, 40° C.
[9] = organic solvent or mixture, dimethyl ether, 45° C./200 bar, read-out: solubility (DME)

## CC(C)(C)NC(=O)[C@@H]1C[C@@H]2CCCC[C@@H]2CN1C[C@@H](O)[C@H](Cc1ccccc1)NC(=O)[C@H](CC(N)=O)NC(=O)c1ccc2ccccc2n1 [Saquinavir]
[1]; pressure 50 bar
  Dv 0.1: 0.5 μm
  Dv 0.5: 3.8 μm
  Dv 0.9: 6.4 μm
[1]; pressure 200 bar
  Dv 0.1: 0.9 μm
  Dv 0.5: 1.5 μm
  Dv 0.9: 2.4 μm
[1]; pressure 280 bar
  Dv 0.1: 0.4 μm
  Dv 0.5: 0.8 μm
  Dv 0.9: 1.7 μm
[1]; [6]
  Dv 0.1: 1.0 μm
  Dv 0.5: 2.1 μm
  Dv 0.9: 4.5 μm
[2]; [7]
  solubility: < 1 mg/mL
[2]; organic solvent or mixture, dimethyl ether, 25° C./100 bar, read-out: solubility (DME)
  solubility: > 100 mg/mL
[3]
  Poly: 0.031
  ZAve: 254.7
[4]; surfactant Aerosol OT, DME
  Dv 0.1: 0.9 μm
  Dv 0.5: 1.5 μm
  Dv 0.9: 2.4 μm
[4]; [8]
  Dv 0.1: 0.7 μm
  Dv 0.5: 1.4 μm
  Dv 0.9: 3.0 μm

## O=C(NCCN1CCOCC1)c1ccc(Cl)cc1 [Moclobemide]
[2]; [7]
  solubility: 3.5 mg/mL (≈ 13 mM)
[2]; [9]
  solubility: 37 mg/mL (≈ 138 mM)

## CC1=C(/C=C/C(C)=C/C=C/C(C)=C\C(=O)O)C(C)(C)CCC1 [Isotretionin]
[2]; [7]
  solubility: 3 mg/mL (≈ 9.99 mM)
[2]; [9]
  solubility: 60 mg/mL (≈ 200 mM)

## COc1ccccc1Oc1c(NS(=O)(=O)c2ccc(C(C)(C)C)cc2)nc(-c2ncccn2)nc1OCCO [Bosentan]
[2]; [7]
  solubility: < 1 mg/mL
[2]; [9]
  solubility: 90 mg/mL (≈ 163 mM)

## CCCCCCCCCCC[C@@H](C[C@@H]1OC(=O)[C@H]1CCCCCC)OC(=O)[C@H](CC(C)C)NC=O [Orlistat, Tetrahydrolipstatin]
[2]; organic solvent or mixture, dimethyl ether, 20° C./4.5 bar, read-out: solubility (DME)
  solubility: 178 mg/mL (≈ 359 mM)
[2]; organic solvent or mixture, liquid CO2, 30° C./100 bar, read-out: solubility (CO2)
  solubility: 6 mg/mL (≈ 12.1 mM)
[5]; over the whole trial (up to 180 min spraying)
  resulting particle size distribution: kept almost constant over the whole trial
[5]; spraying time 90 min
  Dv 0.1: 0.6 μm
  Dv 0.5: 1.4 μm
  Dv 0.9: 2.9 μm
[5]; spraying time 150 min
  Dv 0.1: 0.4 μm
  Dv 0.5: 1.5 μm
  Dv 0.9: 3.5 μm
[5]; spraying time 180 min
  Dv 0.1: 0.9 μm
  Dv 0.5: 2.1 μm
  Dv 0.9: 4.5 μm
